{"source": "patent US20040146535A1", "about": "“Agent for improving tissue penetration” (priority 2001, published 2004)", "key": {"[1]": {"test_system": "porcine brain microvascular endothelial cells (PBEC)", "assay": "in vitro", "source_text": "(§1) Monolayers of primary cultures of porcine brain microvascular endothelial cells (PBEC) represent an in vitro model of the blood-brain barrier. They form monolayers under standard culture conditions both on various collagen coated solid substrates and permeable filters of polycarbonate. The PBEC-monolayer grows on the filter membranes in polarized manner with the apical side representing the capillary lumen but the basolateral side corresponding to brain tissue. As soon as the cells become confluent and build up a tight layer after 7 days PBEC are ready to be used for transport experiments. Due to the formation of functional tight junctions, they show a high transendothelial electrical resistance (TEER) and a tight barrier is created with biological properties similar to the cerebral capillary endothelium\n(§2) The PBEC cells were cultivated in M199, which was supplemented with 10% OS, 0.7 mM L^−1 glutamine, 10,000 U·mL^−1 penicillin/streptomycin and 50·μg mL^−1 gentamicin at 37° C., 5% CO2 and saturated humidity. The cells were subcultivated after being detached with trypsin-EDTA solution and sown on Transwell(r) filter inserts (Costar®, Wiesbaden, Germany). The filters consist of polycarbonate with a surface of 1.13 cm2 and a pore diameter of 0.4 μm.\n(§3) The growth of the PBEC into confluent, differentiated monolayers on Transwell® filter inserts was verified by measurements of the TEER. […] Fluorescein passes the monolayer paracellularly, whereas propranolol is transported transcellularly. The transport studies were carried out directly on the Transwell® plates. The culture medium M199 in the apical and the basolateral compartment was replaced by serum free medium DME/Ham's F12 supplemented as described for M199 and with 0.2 μg·mL^−1 hydrocortisone one day prior to the experiment. All transport experiments involving cell-cultures were carried out as triplicates. For application of substances on the apical side half of the medium of aspirated, mixed with appropriate stock solution of the substance to be investigated and replaced onto the filter. For qualification of transcellular transport by propranolol, KRB replaced the DME/Ham's F12 as transport buffer. For transport across cell free filter inserts, the complete medium in the apical compartment was removed, mixed with stock solution and replaced into the donor compartment. […] Propranolol was dissolved in KRB (pH 7.4). Samples were collected at 15′, 30′, 45′, 60′, and 90′ from the acceptor, at 0′ and 90′ from the donor compartment and the sample volume was replaced by fresh transport buffer. Prior to the experiment and after the final sampling, the TEER of the monolayers was measured.\n(§4) The apparent permeability coefficient (Papp, [cm·s^−1]) was calculated according to equation 1, where dQ/dt is the permeability rate (steady state transport rate, [μg·s^−1]) obtained from the profile of the transported amount of the substrate against the time. A (1.13 cm^2) is the surface of the exposed cell monolayer, m0 the original mass [μg] of the marker substance in the donor compartment (VDonor 0.5 mL). The effective barrier function of the cell-layer is calculated from the apparent permeation coefficient and the permeation coefficient of the cell-free filter according to equation 2. In case that Papp is of higher magnitude than Pfilter, negative permeability coefficients would be calculated. Negative values for Peff are unsensical, thus an unhindered penetration of the cell-layer is to be drawn as conclusion. [formula]\n(§5) In order to find an appropriate concentration affecting the permeation across the BBB, four different concentrations of hexyldiglycerol (HexylG2) were checked for their influence on fluorescein permeation and transendothelial electrical resistance."}, "in vitro": {"assay": "in vitro", "conditions": "pig, permeability coefficient for fluorescein", "source_text": "as §1, §2, §3, §4, §5"}, "[2]": {"test_system": "porcine brain microvascular endothelial cells (PBEC)", "assay": "Transendothelial electrical resistance (TEER) of PBEC monolayers", "assay_type": "cell-based", "description": "[…]. Propranolol was dissolved in KRB (pH 7.4).\nSince a more distinct effect was expected from in vivo findings, a concentration of 75 mM HexylG2 was selected to be tested with further impermeable markers."}}, "data": [{"molecule": "OCC(O)CO", "note": "[^14C-glycerol, glycerol, reference compound]", "values": [{"measurement": "Peff, permeability coefficient of paracellular-transport marker", "setting": "[1]; pig, 90 min", "result": 9.6, "unit": "nm/s"}]}, {"molecule": "O=C1OC2(c3ccc(O)cc3Oc3cc(O)ccc32)c2ccccc21", "note": "[fluorescein, reference compound]", "values": [{"measurement": "Papp A→B at 90 min", "setting": "in vitro; Papp", "result": 2.8, "unit": "nm/s"}, {"measurement": "Papp A→B at 90 min", "setting": "in vitro; Peff", "result": 2.9, "unit": "nm/s"}]}, {"molecule": "hexyldiglycerol [HexylG2]", "values": [{"measurement": "effect on the tightness of the model barrier (fluorescein permeation and TEER)", "setting": "[1]; 0.1 mM, 1 mM and 10 mM of HexylG2", "result": "no effect"}, {"measurement": "enhancement of the penetration (permeability) of fluorescein", "setting": "[1]; 50 mM HexylG2 versus w/o", "result": "about twofold"}, {"measurement": "monolayer permeability towards glucose, inulin and glycerol", "setting": "[1]; treatment of PBEC monolayers, Example 4", "result": "significantly increased"}, {"measurement": "change in TEER", "setting": "[2]; 50 mM HexylG2 (Table 1 experiment)", "result": "decrease in TEER"}, {"measurement": "change in TEER", "setting": "[2]; 75 mM HexylG2 (Table 2 experiment)", "result": "complete loss of TEER"}]}]}
